Measured values reported in PMC5880808, “A lever-like transduction pathway for long-distance chemical- and mechano-gating of the mechanosensitive Piezo1 channel” (Nature Communications, 2018).

Tests used:
[1] = biological target: T1, mPiezo1 (Mus musculus, UniProt E2JF22); test: Inside-out patch recording of single-channel activity, compound in pipette solution; type: cell-based; conditions: −80 mV
T1 construct: The full-length mPiezo1 has 2547 amino acids in each monomer; expressed in transfected cells; host or cells: HEK293T
T1 sequence (E2JF22 whole entry): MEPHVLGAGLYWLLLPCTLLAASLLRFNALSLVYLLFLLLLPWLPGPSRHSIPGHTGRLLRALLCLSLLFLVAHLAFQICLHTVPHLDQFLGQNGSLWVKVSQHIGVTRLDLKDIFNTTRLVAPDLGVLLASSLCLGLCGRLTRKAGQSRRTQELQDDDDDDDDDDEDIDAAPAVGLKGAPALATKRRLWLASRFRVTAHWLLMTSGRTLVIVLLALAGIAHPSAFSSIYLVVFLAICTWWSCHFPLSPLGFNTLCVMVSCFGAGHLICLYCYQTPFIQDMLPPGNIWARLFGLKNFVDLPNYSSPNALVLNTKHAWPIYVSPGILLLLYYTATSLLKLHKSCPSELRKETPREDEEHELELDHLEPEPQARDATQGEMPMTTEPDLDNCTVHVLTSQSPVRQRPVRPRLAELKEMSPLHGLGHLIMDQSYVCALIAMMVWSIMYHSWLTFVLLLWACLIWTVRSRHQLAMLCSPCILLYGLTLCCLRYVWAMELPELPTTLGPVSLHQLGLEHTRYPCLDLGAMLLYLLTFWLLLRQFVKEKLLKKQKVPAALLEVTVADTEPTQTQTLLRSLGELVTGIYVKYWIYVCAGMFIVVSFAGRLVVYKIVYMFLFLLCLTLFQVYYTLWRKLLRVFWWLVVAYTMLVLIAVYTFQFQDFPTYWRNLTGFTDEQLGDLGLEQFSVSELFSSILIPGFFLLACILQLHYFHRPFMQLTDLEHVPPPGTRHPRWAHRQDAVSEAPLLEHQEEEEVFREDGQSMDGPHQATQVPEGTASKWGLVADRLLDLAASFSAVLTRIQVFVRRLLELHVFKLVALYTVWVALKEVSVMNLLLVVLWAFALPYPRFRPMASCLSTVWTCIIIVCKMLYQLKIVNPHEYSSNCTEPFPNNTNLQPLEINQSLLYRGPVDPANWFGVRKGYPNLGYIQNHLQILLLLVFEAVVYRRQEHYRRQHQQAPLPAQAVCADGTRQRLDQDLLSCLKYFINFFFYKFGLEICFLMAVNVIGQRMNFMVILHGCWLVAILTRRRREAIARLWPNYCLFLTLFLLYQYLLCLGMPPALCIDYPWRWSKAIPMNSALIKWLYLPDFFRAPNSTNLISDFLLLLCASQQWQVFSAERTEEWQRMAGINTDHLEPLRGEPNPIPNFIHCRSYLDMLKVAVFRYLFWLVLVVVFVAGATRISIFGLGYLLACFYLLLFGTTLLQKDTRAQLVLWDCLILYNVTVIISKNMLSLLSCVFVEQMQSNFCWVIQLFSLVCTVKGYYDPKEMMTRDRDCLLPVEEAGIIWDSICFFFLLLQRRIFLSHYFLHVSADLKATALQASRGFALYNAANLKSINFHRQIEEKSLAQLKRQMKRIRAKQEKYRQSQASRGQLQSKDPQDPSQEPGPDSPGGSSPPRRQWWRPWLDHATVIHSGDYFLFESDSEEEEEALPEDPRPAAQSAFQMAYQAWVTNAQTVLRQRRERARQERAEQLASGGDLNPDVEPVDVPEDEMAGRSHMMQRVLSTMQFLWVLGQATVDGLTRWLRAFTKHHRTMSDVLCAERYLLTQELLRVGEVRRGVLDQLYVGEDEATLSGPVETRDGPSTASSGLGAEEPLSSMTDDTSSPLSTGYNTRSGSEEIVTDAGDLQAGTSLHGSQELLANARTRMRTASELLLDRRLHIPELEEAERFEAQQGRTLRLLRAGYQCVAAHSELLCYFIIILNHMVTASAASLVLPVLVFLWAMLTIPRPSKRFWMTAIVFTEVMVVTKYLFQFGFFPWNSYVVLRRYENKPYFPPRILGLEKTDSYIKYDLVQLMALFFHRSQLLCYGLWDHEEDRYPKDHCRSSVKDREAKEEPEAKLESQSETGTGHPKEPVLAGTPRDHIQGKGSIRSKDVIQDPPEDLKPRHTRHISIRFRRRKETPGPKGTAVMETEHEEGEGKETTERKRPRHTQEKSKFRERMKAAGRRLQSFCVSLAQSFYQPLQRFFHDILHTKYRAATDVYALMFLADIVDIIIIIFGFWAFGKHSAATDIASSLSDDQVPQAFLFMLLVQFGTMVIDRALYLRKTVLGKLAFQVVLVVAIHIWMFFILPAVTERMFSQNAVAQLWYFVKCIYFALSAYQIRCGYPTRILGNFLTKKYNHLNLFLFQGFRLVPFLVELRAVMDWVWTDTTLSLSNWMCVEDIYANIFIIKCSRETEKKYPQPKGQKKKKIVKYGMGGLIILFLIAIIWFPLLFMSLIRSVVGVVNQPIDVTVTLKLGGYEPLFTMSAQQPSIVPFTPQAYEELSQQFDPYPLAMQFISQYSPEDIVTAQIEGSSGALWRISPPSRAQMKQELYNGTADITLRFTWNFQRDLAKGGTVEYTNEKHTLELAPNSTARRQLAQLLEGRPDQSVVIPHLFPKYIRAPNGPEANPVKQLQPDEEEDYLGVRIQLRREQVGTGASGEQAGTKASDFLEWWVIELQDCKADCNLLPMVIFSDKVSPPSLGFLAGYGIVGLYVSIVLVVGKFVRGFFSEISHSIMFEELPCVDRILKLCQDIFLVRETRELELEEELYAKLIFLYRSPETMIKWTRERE
Source text: For inside-out patch-clamp recordings using an Axopatch 200B amplifier (Axon Instruments), the “extracellular” pipette solution consists of (in mM) the following: 130 NaCl, 5 KCl, 10 HEPES, 1 CaCl2, 1 MgCl2, and 10 TEA-Cl (pH 7.3 with NaOH), and the intracellular “bath” solution contains (in mM) the following: 140 KCl, 10 HEPES, 1 MgCl2, and 10 glucose (pH 7.3 with KOH). All experiments were done at room temperature. Currents were sampled at 20 kHz using Clampex 10.4 software (Axon Instruments) and filtered at 2 kHz. Additional offline filtering of 1 kHz was applied to the recordings for display. Single-channel activity in the presence or absence of Jedi or Yoda1 was continuously recorded for 5 min at −80 mV. The single-channel open probability (NPo) and unitary conductance of mPiezo1 were analyzed using the pClamp software built-in features. Current amplitudes of individual cells recorded at −80 mV were calculated from Gaussian fits to the current amplitude histograms.

[2] = biological target: T2, L1342A/L1345A mutant proteins (Mus musculus, UniProt E2JF22, L1342A/L1345A); test: SPR binding to purified L1342A/L1345A mutant protein
T2 construct: The full-length mPiezo1 has 2547 amino acids in each monomer; GST (PreScission site) (cleaved yes); made in house; host or cells: HEK293T
T2 sequence (E2JF22 whole entry L1342A/L1345A): as the sequence (E2JF22 whole entry) above, with L1342A, L1345A counted along it
Procedure: Real-time binding and analysis by SPR were conducted on BIAcore T200 instrument (GE Healthcare) at 25 °C. Proteins were immobilized on a research-grade CM5 sensor chip by amine-coupling methods. During the pH scouting process, 10 mM sodium acetate at various pH including 4.0, 4.5, 5.0, and 5.5 and protein concentrations varying between 10 and 100 μg/ml were screened before immobilization. Except pH 4.5 for mPiezo1-(1–2190), pH 5.0 was used for all other proteins, including mPiezo1, CED, Δ15-16, and Δ19-20. All proteins were diluted to 50 μg/ml in buffer containing 10 mM sodium acetate at the abovementioned pH, 0.026% C12E10 detergent, and 150 mM NaCl, except that the soluble CED proteins, which were diluted in 150 mM NaCl without detergent. During the immobilization process, the CM5 sensor was activated with NHS first, allowing the amine-containing proteins to be coupled to the sensor through NHS. Each CM5 sensor had 4 flow cells, and the flow cells 1 and 3 were often left blank as a reference. Diluted Piezo1 wild-type or mutant proteins (50 μg/ml) in their respective buffers were immobilized on the flow cell 2 or flow cell 4 to the similar level as indicated by the “response bound” parameter.
(§1) For data collection, compounds at various concentrations were diluted in a running buffer containing 1× PBS, 0.026% detergent C12E10, and 0.05% Surfactant P20 (GE Healthcare Bio-Sciences AB) and injected over the flow cells with at a 30 μl/min flow rate. The proteins and the compounds were allowed to associate for 180 s and then dissociate for 180 s. Data were analyzed with the BIAcore T200 evaluation software by fitting to a 1:1 affinity-binding model.

[3] = biological target: T1, mPiezo1; test: SPR binding to immobilized purified protein; conditions: immobilized mPiezo1 in C12E10, 25 °C
Procedure: We next employed the surface plasmon resonance (SPR) binding assay to examine whether Jedi1/2 bind directly to purified mPiezo1 proteins solubilized in the C12E10 detergent (Supplementary Fig. 2a, b). Based on an amine-coupling method, Piezo1 proteins (50 μg/ml) were optimally immobilized onto a research-grade CM5 sensor chip by using a buffer containing 10 mM sodium acetate (pH 5.0), 150 mM NaCl, 0.026% C12E10, and 0.05% Surfactant P20. […] Given the hydrophilic nature of Jedi1/2, it is possible that the amine-based attachment of the purified Piezo1 protein to the SPR sensor chip might affect the binding. […] Nevertheless, given their low binding affinity, we could not totally exclude the possibility that Jedi1/2 might indirectly activate Piezo1 in the cell.
Real-time binding and analysis by SPR were conducted on BIAcore T200 instrument (GE Healthcare) at 25 °C. Proteins were immobilized on a research-grade CM5 sensor chip by amine-coupling methods. During the pH scouting process, 10 mM sodium acetate at various pH including 4.0, 4.5, 5.0, and 5.5 and protein concentrations varying between 10 and 100 μg/ml were screened before immobilization. Except pH 4.5 for mPiezo1-(1–2190), pH 5.0 was used for all other proteins, including mPiezo1, CED, Δ15-16, and Δ19-20. All proteins were diluted to 50 μg/ml in buffer containing 10 mM sodium acetate at the abovementioned pH, 0.026% C12E10 detergent, and 150 mM NaCl, except that the soluble CED proteins, which were diluted in 150 mM NaCl without detergent. During the immobilization process, the CM5 sensor was activated with NHS first, allowing the amine-containing proteins to be coupled to the sensor through NHS. […]
as §1, with “The proteins and the compounds were allowed to associate for 180 s and then dissociate for 180 s.” left out

[4] = biological target: T1, mPiezo1; test: Whole-cell poking-induced currents; type: cell-based; conditions: for effect on poking currents and inactivation: compound applied to the intracellular side; for increase of poking-induced whole-cell currents: mPiezo1-mRuby2-expressing cells, puffing application of 1 mM Jedi, −80 mV
Procedure: Protocols for HEK293T cell culture, transient transfection, and patch-clamp experiments with an Axopatch 200B amplifier (Axon Instruments) or HEKA EPC10 were essentially similar to how previously described[6],[8]. […] The extracellular solution was composed of (in mM) 133 NaCl, 3 KCl, 2.5 CaCl2, 1 MgCl2, 10 HEPES (pH 7.3 with NaOH), and 10 glucose. All experiments were carried out at room temperature. Currents were sampled at 20 kHz, filtered at 2 kHz using the Clampex 10.4 software (Axon Instruments) or Patchmaster software. Leak currents before mechanical stimulations were subtracted offline from the current traces.
Mechanical stimulation was delivered to the cell during the patch-clamp recording at an angle of 80° using a fire-polished glass pipette (tip diameter 3–4 μm) as previously described[5],[6]. Downward movement of the probe toward the cell was driven by a Clampex-controlled piezo-electric crystal micro-stage (E625 LVPZT Controller/Amplifier; Physik Instrument). […] The poking distance shown in Fig. 3 includes the initial distance between the poking pipette and the cell, which cannot be accurately controlled, and the applied poking distance controlled by the Clampex-controlled piezo-electric crystal micro-stage. Thus, the actual poking distance on the cell membrane should be equal to the applied poking distance minus the initial distance between the poking pipette and the cell under recording. In the step-wise poking experiment, the patch was readily lost when the cell was broken at the end of the poking.
Stock solutions of Jedi1 (100 mM), Jedi2 (100 mM), and Yoda1 (30 mM) were solubilized in DMSO and diluted to the desired final concentrations as indicated in the figure legends using external or internal solutions. In Figs. 3a, 5b, and 6e, the compound solutions were puffed onto the cells using a multichannel perfusion system (MPS-2, World Precision Instruments) while continuously recording using a gap-free mode. In other conditions, the compounds were directly added to the recording chamber or pipette solution, and the currents were recorded within 10 min. In Figs. 5b and 6e, we used the Piezo1-KO-HEK cell line in which the endogenous Piezo1 gene is disrupted.

[5] = compound applied to the extracellular side

Compound | fold change of the open probability (NPo) [1] | binding to purified L1342A/L1345A mutant proteins (SPR) [2] | Kd [3] [µM] | inactivation tau of poking-induced currents [4, 5] | poking-induced maximal currents (Imax) [4, 5] | effect on poking currents and inactivation [4] | increase of poking-induced whole-cell currents [4] [folds]
Cc1oc(-c2ccccc2)cc1C(=O)O [Jedi1] | 9.6 ± 2.4 fold | retained the ability to bind | 2750 ± 425 | slowed the inactivation tau | significantly enhanced | had no effect | 3.8 ± 0.5
Cc1oc(-c2cccs2)cc1C(=O)O [Jedi2] | significant increase in the opening probability | retained the ability to bind | 2770 ± 178 | – | – | – | 5.4 ± 0.7
Clc1cccc(Cl)c1CSc1nnc(-c2cnccn2)s1 [Yoda1, reference compound] | 14.8 ± 0.6 fold | retained the ability to bind | 45.6 ± 14.3 | – | – | remained effective in enhancing the poking currents and slowing the inactivation | –
